# Measured values taken from patent US11883405B2, “Pharmaceutical composition comprising a combination of methotrexate and novobiocin, and the use of said composition in therapy” (Amplio Pharma AB, priority 2017, dated 2024).
# Read-outs that look alike come from different tables or passages of the source.
# What was measured:
# MMP3 = details: cited from earlier work
# MMP1 = details: cited from earlier work; for IL-1 induced increase in MMP1 expression: Nose M. et al. (1997)
# [1] = adults; cited from earlier work
# [2] = Pharmacokinetic cross-over study in healthy volunteers (oral / subcutaneous); assay type: in vivo, human; details: for absorption: after oral and subcutaneous administration
# Method: Administrations are separated by a wash-out period of 7-14 days. […] Plasma samples are stored at −20° C. until analysis. The primary objective of the study is to evaluate the relative bio-availability of methotrexate following its co-administration with novobiocin. Secondary objectives of the study include the overall tolerability and safety of the co-administration of a therapeutic dose of methotrexate with a non-therapeutic dose of novobiocin for both administration routes overall and in comparison, to administration of methotrexate alone.
# [3] = cited from earlier work
# neutrophils [4] = test: Induction of neutrophil apoptosis (in vitro/ex vivo model of arthritis); assay type: cell-based, human
# Description: (§1) Apoptosis, in contrast to necrosis, is the demise of a cell through a series of controlled sequential events, resulting in an increase of anti-inflammatory mediators instead of invoking an inflammatory response, because the contents of the cell are removed by phagocytosis and not released to the direct environment. Apoptosis involves the activation of caspases, including caspase 3. Aberration in expression and/or function of the regulators of cell death through apoptosis is thought to result in pathological conditions, including autoimmune diseases and cancer. Although apoptotic cells are uncommonly observed in vivo in RA tissues, in vitro inflammatory cells from RA tissues, like synoviocytes, T-cells and macrophages, are highly susceptible to apoptosis induced through the FAS-TNF-receptor pathway. The absence of apoptotic cells in vivo may be explained by the high levels of nitric oxide in RA tissues, which inhibits caspase 3 and thus cell apoptosis.
# (§2) Novobiocin is a topoisomerase II inhibitor and at therapeutically relevant concentration levels, is expected to counteract CPPD-triggered prolonged survival of neutrophils. Such a pharmacodynamic effect of Novobiocin may be quantified either through activity (levels) of caspase 3, an apoptotic cleavage enzyme, or cytoplasmic histone-associated-DNA fragmentation assessment, using commercially available kits.
# (§3) In the latter model, the effect on neutrophil apoptosis can be either studied directly, or indirectly, exposing the cells in vitro to a challenge that prolongs their survival (e.g. CPPD crystals).
# (§4) CPPD (Ca2P2O7.2H2O; triclinic form) crystals can be obtained using well described methods (Burt H M et al. 1989; Gras P. et al. 2013). Plasma protein coating of the crystals is achieved through incubation of the crystals in 50% plasma (Tudan C et al. 2003). The CPPD crystals are used in experiments with neutrophils from healthy control individuals/animals to mimic arthritic disease.
# (§5) Neutrophils are separated from fresh human (healthy control/patient) or rat (healthy control; disease model) blood using standard methods and suspended in buffer at a concentration of 1×10^6 cells/ml. The cells are incubated at 37° C. with occasional tumbling.
# (§6) Stock solutions of TNFalpha, Methotrexate and Novobiocin are prepared in DMSO, keeping the DMSO concentrations in the cell suspensions below 0.1% during the experiment. The apoptosis rate following the administration of vehicle without active agent (negative control) represents the baseline rate of apoptosis (no effect level), while the apoptosis rate following the administration of TNFalpha (positive control) represents the maximum rate of apoptosis (100% effect level).
# plasma albumin = biological target: T1, plasma albumin (Homo sapiens, UniProt P02768); details: in men; cited from earlier work
# T1 construct: host or cells: human plasma
# [5] = Pharmacokinetics in rats after oral (gavage) or parenteral administration
# Method: (§9) In vivo study protocol—in accordance with local (Malmo, Sweden) animal ethic license number M388-12: Following acclimatization to the housing conditions for a minimum of 7 days after arrival, male Wistar (Hannover) rats (Taconic, Denmark), average weight 300 g; average age 8-10 weeks, are treated with test items (see table 1); 12-16 h prior to dosing all food except for an amount equivalent to a half day consumption is removed. The test items are administrated using a soft gavage tube (p.o.) or by injecting the test item in the tail vein (i.v). The volume given is 5 mL/kg (p.o.) or 1 mL/kg (i.v.). Before i.v administration rats are anesthetized using isoflurane. The rats are conscious during sample collection and the blood is taken from the sub-lingual vein. Blood samples are collected from each rat over a period of up to 24 h. At each time point two aliquots of 50 μL each is added to a vial containing 150 μL of sterile water. The samples are mixed immediately and stored at −18° C. until preparation for bioanalysis is commenced. All formulations are prepared on the same day that dosing takes place. The body weight of the rat is recorded before dosing. The weight of the syringe is recorded before and after administration to allow calculation of the actual amount of test sample delivered. The actual doses are used during the evaluation of the data.
# (§10) Samples and standards are injected by a HTC PAL from CTC analytics into an LC system from Shimadzu consisting of a high-pressure gradient system of two LC-10 AD pumps controlled by a SCL-10A controller from Shimadzu. The samples are separated using reverse-phase chromatography with gradient elution at a flow rate of 0.8 mL/min. Mobile phases are A:94.9/5/0.1 water/acetonitrile/formic acid and B:5/94.9/0.1 water/acetonitrile/formic acid. Gradient starts at 0% B and increases linearly to 100% B in 4 minutes, 100% B is kept for 0.5 minutes and then the system returns to 0% B in 0.1 minutes. The system is equilibrated for 1.4 minutes until the total run time of 6 minutes. The eluent is analysed by a Quattro Ultima from Micromass equipped with an electrospray ion source. Data are collected, and calibrations are calculated by MassLynx 4.0 software. […] The eluent is ionized by negative ion electrospray.
# (§11) The diluted blood sample (50 μL blood, 150 μL water) is thawed and mixed with 400 μL of acetonitrile, to precipitate the protein. The sample is centrifuged at 5000 g for 5 minutes and 100 μL of the supernatant is transferred to a 300 μL glass vial and 100 μL of water is added to reduce the acetonitrile concentration.
# (§12) The concentration of the standard curve is in the range from 5 nM to 15625 nM. Samples with analyte concentrations above the upper limit of quantification are diluted with matrix to reach within the assay range. A non-compartmental analysis (NCA) is performed using the Phoenix WinNonLin analysis tool.
# [6] = system: pristane-induced arthritis; test: Pristane-induced arthritis (PIA) rat model; assay type: in vivo
# Method: The animals are acclimatized for approximately one week before initiation of experiment. All rats are weighed day 0, the day of disease induction, for determination of mean weight of the rats included in the experiment. Arthritis is induced by subcutaneous (s.c.) administration of 200 μl pristane on Day 0. The rats are anesthetized by inhaling a mixture of Isoba vet (3.5%) and oxygen. The root of the tail is cleaned with 70% ethanol and the oil is injected approximately 0.5 cm from the root of the tail. A slight pressure is put on the injection site for 5 seconds after injection to prevent leakage of the oil. Test compounds are administered either i.v. or p.o. (by gavage). Disease is evaluated three times per week from disease onset using a macroscopic scoring system of the four limbs ranging from 0 to 15 (1 point for each swollen or red toe, 1 point for a swollen or red mid foot digit or knuckle, 5 points for a swollen ankle) resulting in a maximum total score of 60 for each rat. The disease scoring is done in a double-blind fashion, i.e. the scorer is unaware of the treatment received by the animal. […]
# [7] = rat, in vivo
# Method: as §9, §10, §11, §12
# neutrophils [8] = test: Induction of neutrophil apoptosis (in vitro/ex vivo model of arthritis); assay type: cell-based, rat
# Description: as §1, §2, §3, §4, §5, §6
# MMP1 (collagenase) = test: IL-1 induced mRNA upregulation of MMP1 in primary chondrocyte culture; assay type: cell-based, calf; details: concentrations <100 uM
# Method: (§7) Primary chondrocyte culture was freshly isolated from calf cartilage. The cells were plated (at 2.5×10^6 per mL) in 100×20 mm culture dishes and incubated in Ham's F12 medium containing 5% fetal bovine serum (FBS) overnight at 37° C. The cells were starved with serum-free medium overnight. The cells were pretreated with MTX, NOV or a combination of MTX with 1, 2, 10 or 20 eq of NOV for 6 hours. Then IL-1 (20 ng/mL) was added to each plate and the plates were incubated for an additional 18 h.
# (§8) Total RNA was isolated by the acidified guanidine isothiocyanate method and subjected to electrophoresis on a denatured gel. Denatured RNA samples were analyzed by gel electrophoresis in a 1% denaturing gel, transferred to a nylon membrane and hybridized respectively with the ^32P-cDNA probes for MMP1, MMP3 and proteoglycan and analyzed.
# MMP3 (stromelysin1) = test: IL-1 induced mRNA upregulation of MMP3 in primary chondrocyte culture; assay type: cell-based; details: calf chondrocytes, IL-1 20 ng/mL; concentrations <100 uM
# Method: as §7, §8
# [9] = rodents; cited from earlier work
# neutrophils [10] = details: 4 months after reaching a therapeutic dose of more than 20 mg/week; cited from earlier work
# [11] = cited from earlier work; remark: listed apart in the source
# [12] = therapeutically effective treatment dose level; cited from earlier work
# RA patients = details: 15 mg/wk, cited from earlier work
# [13] = at 1×10^−7 M, Jackson J K et al. (2008)
# [14] = neutrophils from healthy subjects, concentrations <60 uM
# [15] = male, Wistar (Hannover), rat, whole blood, ip, 5.5 mg/kg
# [16] = male, Wistar (Hannover), rat, whole blood, po, 55 mg/kg
# [17] = neutrophils from healthy rat, concentrations <60 uM
# [18] = male, Wistar (Hannover), rat, whole blood, po, 2 mg/kg
# T1 sequence (P02768 25-609): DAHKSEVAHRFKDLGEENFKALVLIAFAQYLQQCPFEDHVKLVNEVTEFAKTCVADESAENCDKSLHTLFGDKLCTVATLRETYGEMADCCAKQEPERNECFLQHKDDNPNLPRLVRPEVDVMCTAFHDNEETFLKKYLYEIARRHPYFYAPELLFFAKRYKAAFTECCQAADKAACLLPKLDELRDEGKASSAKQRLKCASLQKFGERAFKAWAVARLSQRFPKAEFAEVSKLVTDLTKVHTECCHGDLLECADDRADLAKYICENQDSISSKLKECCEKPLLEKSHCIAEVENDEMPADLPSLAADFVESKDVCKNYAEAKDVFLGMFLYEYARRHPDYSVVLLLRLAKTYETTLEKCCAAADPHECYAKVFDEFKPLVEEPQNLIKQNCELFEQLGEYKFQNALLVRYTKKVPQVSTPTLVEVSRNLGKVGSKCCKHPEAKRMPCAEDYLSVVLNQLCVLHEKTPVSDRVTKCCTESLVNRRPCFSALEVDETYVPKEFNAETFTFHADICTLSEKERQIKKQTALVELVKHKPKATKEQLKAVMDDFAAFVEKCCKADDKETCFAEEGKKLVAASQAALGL
compound,measurement,setting,value
CC[C@@]1(O)C(=O)OCc2c1cc1n(c2=O)Cc2cc3ccccc3nc2-1 [Camptothecin],IL-1 induced increase in MMP3 mRNA expression,MMP3; [13],almost completely inhibited
same,IL-1 induced increase in MMP1 mRNA expression,MMP1; [13],almost completely inhibited
O=C(O)c1cc(/N=N/c2ccc(S(=O)(=O)Nc3ccccn3)cc2)ccc1O [Sulfasalazin],IL-1 induced increase in MMP3 expression,MMP3; Nose M. et al. (1997),suppressed
same,IL-1 induced increase in MMP1 expression,MMP1,suppressed
"CO[C@@H]1[C@@H](OC(N)=O)[C@@H](O)[C@H](Oc2ccc3c(O)c(NC(=O)c4ccc(O)c(CC=C(C)C)c4)c(=O)oc3c2C)OC1(C)C [novobiocin, 4-hydroxy-3-[4-hydroxy-3-(3-mehtylbut-2-enyl)benzamido]-8-methylcoumarin-7-yl 3-O-carbamoyl-5,5-di-C-methyl-alpha-L-lyxofuranoside]",maximum tolerated dose (MTD),[1],4 g/day
same,absorption,[2]; healthy volunteers,rapidly absorbed
same,plasma levels versus levels at which any pharmacodynamic effects can be observed in non-clinical models of disease,[2]; healthy volunteers,remain well below
same,"time to maximum plasma concentrations, sub cutaneous route versus oral route",[2]; healthy volunteers,reached faster
same,dose excreted unaltered in the urine,"[3]; Wright W. W. et al., 1956",About 3%
same,oral dose excreted in the faeces,[3]; hepatic/biliary excretion,about 30%
same,effect of NOV on CPPD-induced prolonged survival,"neutrophils [4]; neutrophils from healthy controls (human), control = base line, TNFalpha is 100% effect, concentrations <50 uM",No pharmacodynamic effects
same,pharmacodynamic effects on CPPD-induced prolonged survival,neutrophils [4]; [14],No pharmacodynamic effects
same,pharmacodynamic effects on neutrophil apoptosis,neutrophils [4]; [14],No pharmacodynamic effects
same,pharmacodynamic effects on neutrophil apoptosis,"neutrophils [4]; neutrophils from patients with rheumatoid arthritis, concentrations <60 uM",No pharmacodynamic effects
same,bound to plasma albumin,plasma albumin,99.2%
same,AUC(0-inf),[5]; [15],25500 ng·h/mL
same,Cmax,[5]; [15],9600 ng/mL
same,Tmax,[5]; [15],0.9 h
same,AUC(0-inf),[5]; [16],110000 ng·h/mL
same,AUC(0-t),[5]; [16],110 µg·h/mL
same,Cmax,[5]; [16],23300 ng/mL
same,Tmax,[5]; [16],1.8 h
same,Cmax,[5]; oral administration (gavage; 55 mg/kg),23300 ng/mL
same,therapeutic effect on the pristane-induced arthritis,[6]; daily per oral administration of up to 80 mg/kg from day 11 to 21 (after onset of disease),no therapeutic effect
same,linearity of pharmacokinetics,[7],linear
same,pharmacodynamic effects on neutrophil apoptosis,"neutrophils [8]; neutrophils from disease model animals (PIA rat), concentrations <60 uM",No pharmacodynamic effects
same,effect of NOV on CPPD-induced prolonged survival,"neutrophils [8]; neutrophils from healthy controls (rat), control = base line, TNFalpha is 100% effect, concentrations <50 uM",No pharmacodynamic effects
same,pharmacodynamic effects on CPPD-induced prolonged survival,neutrophils [8]; [17],No pharmacodynamic effects
same,pharmacodynamic effects on neutrophil apoptosis,neutrophils [8]; [17],No pharmacodynamic effects
same,pharmacodynamic effects on the IL-1 induced mRNA upregulation of MMP1,"MMP1 (collagenase); calf chondrocytes, IL-1 20 ng/mL",No pharmacodynamic effects
same,additional pharmacodynamic effects on the inhibition of the IL-1 induced mRNA upregulation of MMP1 by MTX,MMP1 (collagenase); novobiocin added to MTX,No additional pharmacodynamic effects
same,pharmacodynamic effects on the IL-1 induced mRNA upregulation of MMP3,MMP3 (stromelysin1),No pharmacodynamic effects
same,oral availability,[9],about 30%
"CN(Cc1cnc2nc(N)nc(N)c2n1)c1ccc(C(=O)N[C@@H](CCC(=O)O)C(=O)O)cc1 [methotrexate, N-[4-[[(2,4-diamino-6-pteridinyl)methyl]methylamino]benzoyl]-L-glutamic acid]",neutrophil apoptosis in RA patients,neutrophils [10],restoration of neutrophil apoptosis to healthy control levels
same,"maximum concentrations and total plasma concentrations, sub cutaneous versus oral administration",[2]; 15 mg methotrexate alone,higher
same,absorption,[2]; healthy volunteers,rapidly absorbed
same,"time to maximum plasma concentrations, sub cutaneous route versus oral route",[2]; healthy volunteers,reached faster
same,AUC(0-inf),[5]; [18],0.923 µM·h
same,AUC(0-t),[5]; [18],0.759 µM·h
same,Cmax,[5]; [18],277 nM
same,inflammatory effects of pristane,[6]; 0.1 mg/kg every third day from day 7 (i.v.),completely ameliorated
same,time within which non-polyglutamated methotrexate is excreted in the urine after administration,[11]; in vivo,≤ 12 h
same,systemic bioavailability,"[11]; man, oral dose",approximately 73%
same,bioavailability,[11]; subcutaneous (sc) administration,approx. 95%
same,patient population in which treatment needs to be terminated due to intolerability,[12],about 30%
same,IL-1 induced increase in MMP1 expression,MMP1,suppressed
same,"treatment success, RA patients",RA patients; oral application route,24%
same,"treatment success, RA patients",RA patients; sc application route,34%
